Data set [1] has as its system HEK-293 cells expressing GAPDH and GluR2. As to the kind of experiment: AMPA mediated cell-death assay (CellTox Green Cytotoxicity Assay). Format: cell-based. To be noted: Homo sapiens, HEK293, AMPA 500 μM, CTZ 100 μM, CellTox Green fluorescence, read-out: Potency, inhibition of AMPA-mediated neurotoxicity (IC50, concentration at which 50% of cell death was prevented). Here is the method: The ability of compounds to inhibit AMPA-mediated neurotoxicity was determined using the CellTox™ Green Cytotoxicity Assay (G8743) kit from Promega. In this assay, GAPDH and GluR2 are expressed in HEK-293 cells. AMPA (500 μM) was added to induce an AMPAR-mediated cell death signalling cascade. This is initiated by the GAPDH-GluR2 complex formation followed by the nuclear translocation of the complex, where it activates the p53-mediated cell death pathway. The presence of a compound which can block dimerization of GAPDH and GluR2 will prevent the nuclear translocation and the cell death and, thus this assay is an effective measure of the ability of a compound to prevent AMPA-mediated neurotoxicity and thus show therapeutic benefit in the treatment of MS.
The assay was performed as per the manufacture's instruction. Briefly, 293 cells stably expressing GluR1 and GluR2VENUS were transfected with pcDNA-RluC-GAPDH. AMPA (500 μM) were added to induce the cell death. CTZ (100 μM) was added to prevent AMPAR desensitization. Candidate molecules were added before the AMPA treatment to test its protective effect. Untreated cells and AMPA treated group were used as negative and positive control respectively. CellTox™ Green Reagent (˜5×) was then added to achieve a final concentration of 1× and cells were incubated at room temperature for 15 minutes (shielded from ambient light). The fluorescence intensity at 485-500 nmEx/520-530 nmEm was then measured and calculated as the percentage value of the positive control. The concentration at which 50% of cell death was prevented (IC50) was determined for each compound.
The potency was measured using the cell death assay described above.

Data set [2] has as its system EAE mice. As to the kind of experiment: Experimental autoimmune encephalomyelitis (EAE) model for multiple sclerosis. Format: in vivo, mice (C57BL/6).
Data set [3] deals with T1, GluR2/GAPDH complex (Homo sapiens, UniProt P42262).
T1 construct: host or cells: HEK293 cells stably transfected with GluR2-VENUS (lysate)
T1 sequence (P42262 25-883, species assumed, one chain of several): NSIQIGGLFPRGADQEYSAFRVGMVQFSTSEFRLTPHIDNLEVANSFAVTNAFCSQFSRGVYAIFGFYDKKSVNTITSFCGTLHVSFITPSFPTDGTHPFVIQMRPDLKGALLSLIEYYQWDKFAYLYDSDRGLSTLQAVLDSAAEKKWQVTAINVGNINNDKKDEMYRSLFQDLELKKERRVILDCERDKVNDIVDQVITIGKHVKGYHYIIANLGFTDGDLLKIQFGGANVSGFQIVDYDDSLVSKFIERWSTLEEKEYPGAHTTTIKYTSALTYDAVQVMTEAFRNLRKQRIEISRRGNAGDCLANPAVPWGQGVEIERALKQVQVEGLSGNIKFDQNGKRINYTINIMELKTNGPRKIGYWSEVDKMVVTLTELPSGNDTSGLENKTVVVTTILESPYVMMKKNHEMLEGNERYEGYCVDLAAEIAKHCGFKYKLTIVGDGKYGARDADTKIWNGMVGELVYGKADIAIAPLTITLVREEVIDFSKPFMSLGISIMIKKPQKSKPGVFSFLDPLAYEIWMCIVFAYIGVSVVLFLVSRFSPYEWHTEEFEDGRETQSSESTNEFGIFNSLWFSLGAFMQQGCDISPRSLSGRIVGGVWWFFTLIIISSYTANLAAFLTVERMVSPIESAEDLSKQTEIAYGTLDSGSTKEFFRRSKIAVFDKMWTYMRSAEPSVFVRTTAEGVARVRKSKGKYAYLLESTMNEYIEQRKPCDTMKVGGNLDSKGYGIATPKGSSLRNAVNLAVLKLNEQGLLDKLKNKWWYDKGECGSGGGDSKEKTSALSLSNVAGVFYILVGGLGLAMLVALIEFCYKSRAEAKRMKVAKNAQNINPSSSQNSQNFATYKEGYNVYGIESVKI
Put plainly: Surface plasmon resonance target engagement assay (competitive GluR2-Venus affinity with GAPDH). As to conditions: SPR, captured GluR2-VENUS, 100 nM GAPDH peptide, compound top concentration 10 μM; read-out: Potency, GluR2 Binding Affinity (competitive inhibition of GluR2-GAPDH interaction). Here is the method: This is one of the most commonly used techniques to study modulation of protein-protein interactions by small molecule ligands, providing real-time measurement of binding affinities and association/dissociation kinetics of complexes (compound/protein) in a label-free environment. The ability of our lead compound to disrupt the interaction of GluR2/GAPDH complex was measured by the binding affinity. Compounds were analyzed for competitive GluR2-Venus protein affinity (with GAPDH recombinant protein) using a Reichert 2SPR system. The surface was first charged with nickel (500 μM NiCl2 in HBS-P buffer for 300 s at a flow rate of 5 μL/min). The dextran surface was then activated with a 1:1 mixture of N-ethyl-N-dimethylaminopropylcarbodiimide (EDC) and N-hydroxysuccinimide (NHS) on line for final concentrations of EDC and NHS of 37.5 mg/mL and 5.8 mg/mL, respectively, for 420 s at a flow rate of 25 μL/min. Anti-VENUS antibody was first immobilized by capture onto a 500 KDa CM Dextran sensor chip (Reichert), proceeded by activation of the carboxymethylated dextran surface for mild amine coupling, followed by a final blocking injection of 1 M ethanolamine, pH 8.5. GluR2-VENUS (lysate of HEK293 cells stably transfected with GluR2-VENUS) was then captured for 900 s at a flow rate of 25 μL/min followed by a final blocking injection of 2% BSA, for 300 s at a flow rate of 5 μL/min.
The surface plasmon resonance affinity assay was carried out in a PBS buffer consisting of 0.05% Tween 20. For affinity measurements, compound solutions were prepared using ten three-fold serial dilutions in running buffer from a 10 μM top concentration (prepared from DMSO stocks) along with a zero (running buffer) control, mixed with 100 nM GAPDH peptide (Sigma Aldrich). A flow rate of 30 μl/min was used with a 420 s contact time (using high performance injection parameters) followed by a 120 s dissociation phase. Results were analyzed by subtracting the signals of the reference surface from the signals for the protein-bound surfaces and performing a solvent correction. Competitive binding responses were normalized throughout the screen to the percentage of inhibition of the respective small molecule compound. Three independent experiments were performed.
The binding affinity was measured using the surface plasmon resonance assay described above.
(In general: In SPR one partner is held on a chip, and binding of the other changes the refractive index at the surface.)

Data set [4] is described as follows: Human liver microsomal stability assay. Format: in vitro ADME. As to conditions: both sexes, pooled human liver microsomes, pH 7.4; human liver microsomes 0.5 mg/mL, 3 μM compound, NADPH, 37° C., 45 min; read-out: T1/2, human liver microsomal stability. How it is done: (§1) Metabolic stability of 2-pyrrolopyrazoles derivatives was measured by determination of the rate of compound disappearance when incubated in the presence of human or rat liver microsomes. Liver microsomes are prepared from the endoplasmic reticulum of hepatocytes and are the primary source of the most important enzymes (cytochrome P450) involved in drug metabolism. Study of drug stability in the presence of liver microsomes is accepted as a valuable model permitting rapid prediction of in vivo drug stability.
(§2) Human or rat liver microsomes were obtained from a commercial source. Test compounds (3 μM) were incubated with pooled liver microsomes (male and female). Samples were incubated for a 45 minute period and removed at 5 time points and test compounds were analyzed by LC-MS/MS
(§3) Microsomes (final protein concentration 0.5 mg/mL), 0.1 M phosphate buffer pH 7.4, and test compound (final concentration 3 μM; diluted from 10 mM stock solution to give a final DMSO concentration of 0.25%) were incubated at 37° C. prior to the addition of NADPH (final concentration 1 mM) to initiate the reaction. The final incubation volume was 25 μL. A control incubation was included for each compound tested, where 0.1 M phosphate buffer pH 7.4 was added instead of NADPH. The control compounds testosterone and 7-hydroxycoumarin were included in each experiment and all incubations were performed singularly for each compound.
(§4) Each compound was incubated for 0, 5, 15, 30, and 45 minutes. The control (minus NADPH) was incubated for 45 minutes only. The reactions were stopped by the addition of 50 μL methanol containing internal standard at the appropriate time points. The incubation plates were centrifuged at 2500 rpm for 20 minutes at 4° C. to precipitate the protein.
(§5) Following protein precipitation, the sample supernatants were combined in cassettes of up to 4 compounds and analysed using standard LC-MS/MS conditions.
(§6) From a plot of the natural logarithm of the peak area ratio (i.e., the ratio of compound peak area: internal standard peak area) against time, the gradient of the line was determined. Subsequently, half-life and intrinsic clearance were calculated using the equations below: Eliminated rate constant (k)=(−gradient). Half-life (t1/2) (min)=[…]. Intrinsic Clearance (CLint) (μL/min/[…])=(V×0.693)/t1/2. wherein V=Incubation volume (μL/mg microsomal protein).
(§7) Biological half-life values (t1/2) were determined for several 2-pyrrolopyrazoles, as well as the closely-related reference 1-pyrrolopyrazole, using the human liver microsomal stability assay described above.

The nature of data set [5]: Rat liver microsomal stability assay. Format: in vitro ADME. As to conditions: both sexes, pooled rat liver microsomes, pH 7.4; rat liver microsomes 0.5 mg/mL, 3 μM compound, NADPH, 37° C., 45 min; read-out: T1/2, rat liver microsomal stability. Here is the method: as §1, §2, §3, §4, §5, §6, §7
On the technique in general: Microsomes from liver hold many membrane-bound enzymes, among them those of drug oxidation.

`CN(C)C(=O)c1cncc(N2Cc3cn(Cc4ccc(F)cc4)nc3C2)n1` [Compound 155, 6-(2-(4-Fluorobenzyl)-2,6-dihydropyrrolo[3,4-c]pyrazol-5(4H)-yl)-N,N-dimethylpyrazine-2-carboxamide]: the IC50 came to 35 nM in data set [1] and 0.4 nM in data set [3]. The “mean clinical score compared with the no treatment group” value in data set [2] (5 or 10 mg/kg i.p. daily from day 11~12, two-way ANOVA at least P<0.05) is reported as “significantly lower”. Besides, the neurological function entry in data set [2] (i.p. administration from day 11~12 after immunization (1~2 days after symptoms)) is reported as “greatly improves neurological function”.
For `CN(C)C(=O)c1ccnc(N2Cc3cn(Cc4ccc(F)cc4)nc3C2)n1` [Compound 210, 2-(2-(4-Fluorobenzyl)-2,6-dihydropyrrolo[3,4-c]pyrazol-5(4H)-yl)-N,N-dimethylpyrimidine-4-carboxamide], the figures for the IC50 in data set [1] and in data set [3] were 82 nM and 33 nM, respectively. Besides, the half-life at 3 μM in data set [4] stood at 749 min.
With `O=C(NC1CCCCC1)c1cccc(N2Cc3cn(Cc4ccc(F)cc4)nc3C2)c1` [Compound 216, N-Cyclohexyl-3-(2-(4-fluorobenzyl)-2,6-dihydropyrrolo[3,4-c]pyrazol-5(4H)-yl)benzamide], the IC50 in data set [1] is 57 nM; in data set [3] it was 91 nM. For the same molecule, the half-life at 3 μM in data set [4] was over 1000 min.
Take `CN(C(=O)c1ccnc(N2Cc3cn(Cc4ccc(F)cc4)nc3C2)n1)C1CCCC1` [Compound 226, N-Cyclopentyl-2-(2-(4-fluorobenzyl)-2,6-dihydropyrrolo[3,4-c]pyrazol-5(4H)-yl)-N-methylpyrimidine-4-carboxamide]: the IC50 in data set [1] stood at 42 nM. Also, the half-life at 3 μM is 7 min in data set [4] and under 1 min in data set [5].
The matching figures for `CN(C(=O)c1cncc(N2Cc3cn(Cc4ccc(F)cc4)nc3C2)n1)C1CCCC1` [Compound 228, N-Cyclopentyl-6-(2-(4-fluorobenzyl)-2,6-dihydropyrrolo[3,4-c]pyrazol-5(4H)-yl)-N-methylpyrazine-2-carboxamide]: 42 nM, 8 min and under 1 min.
Turning to `CN(C(=O)c1ccnc(N2Cc3cn(Cc4ccc(F)cc4)nc3C2)n1)C1CCCCC1` [Compound 230, N-Cyclohexyl-2-(2-(4-fluorobenzyl)-2,6-dihydropyrrolo[3,4-c]pyrazol-5(4H)-yl)-N-methylpyrimidine-4-carboxamide], the IC50 in data set [1] was determined as 87 nM. Also, the half-life at 3 μM in data set [5] is under 1 min.
`O=C(c1cccc(N2Cc3cn(Cc4ccc(F)cc4)nc3C2)c1)N1CCCCC1` [Compound 242, (3-(2-(4-Fluorobenzyl)-2,6-dihydropyrrolo[3,4-c]pyrazol-5(4H)-yl)phenyl)(piperidin-1-yl)methanone]: the results for the IC50 in data set [1] and in data set [3] were 79 nM and 8 nM, respectively. In addition, in data set [5], the half-life at 3 μM stood at 14 min.
On to `N#Cc1cncc(N2Cc3cn(Cc4ccc(F)cc4)nc3C2)n1` [Compound 245, 6-(2-(4-Fluorobenzyl)-2,6-dihydropyrrolo[3,4-c]pyrazol-5(4H)-yl)pyrazine-2-carbonitrile], for which the IC50 in data set [1] is 771 nM; in data set [3] it was 206 nM.
In the same order, the values of `CN(C)C(=O)c1ccc(N2Cc3cn(Cc4ccc(F)cc4)nc3C2)cc1` [Compound 246, 4-(2-(4-Fluorobenzyl)-2,6-dihydropyrrolo[3,4-c]pyrazol-5(4H)-yl)-N,N-dimethylbenzamide] are 8.6 nM and 440 nM.
The matching figures for `CN(C)C(=O)c1cccc(N2Cc3cn(CC4CC4)nc3C2)c1` [Compound 247, 3-(2-(Cyclopropylmethyl)-2,6-dihydropyrrolo[3,4-c]pyrazol-5(4H)-yl)-N,N-dimethylbenzamide]: 36 nM and 148 nM.
With `CN(C)C(=O)c1cncc(N2Cc3cnn(Cc4ccc(F)cc4)c3C2)n1` [REF, reference compound], the IC50 was 200 nM in data set [1] and over 1000 nM in data set [3].

These data come from patent US12398139B2, “Modulators of AMPA receptor signaling” (Centre for Addiction and Mental Health, priority 2019, dated 2025).
